In the supplement of paper PMC13380429:

How the values were obtained:
Conditions in all cases: 72 h
Vero E6 [1] = assay: relative viability EC50 (midpoint between 100% and the lowest measured viability); higher = less toxic
Calu-3 [2] = assay: as above
HepG2 [3] = assay: as above
U2OS [4] = assay: as above
Caco-2 [5] = assay: as above
Vero E6 [6] = assay: cell viability relative to DMSO; higher = less toxic
Calu-3 [7] = assay: as above
HepG2 [8] = assay: as above
U2OS [9] = assay: as above
Caco-2 [10] = assay: as above
Vero E6 [11] = assay: drug sensitivity score (DSS) for viability; higher = more toxic; extreme values may be limits of the assay
Calu-3 [12] = assay: as above
HepG2 [13] = assay: as above
U2OS [14] = assay: as above
Caco-2 [15] = assay: as above

| Structure (SMILES) | relative viability EC50 (Vero E6 [1]) [µM] | relative viability EC50 (Calu-3 [2]) [µM] | relative viability EC50 (HepG2 [3]) [µM] | relative viability EC50 (U2OS [4]) [µM] | relative viability EC50 (Caco-2 [5]) [µM] | cell viability (Vero E6 [6]; 1 nM) [%] | cell viability (Vero E6 [6]; 10 nM) [%] | cell viability (Vero E6 [6]; 100 nM) [%] | cell viability (Vero E6 [6]; 1000 nM) [%] | cell viability (Vero E6 [6]; 10000 nM) [%] | cell viability (Calu-3 [7]; 1 nM) [%] | cell viability (Calu-3 [7]; 10 nM) [%] | cell viability (Calu-3 [7]; 100 nM) [%] | cell viability (Calu-3 [7]; 1000 nM) [%] | cell viability (Calu-3 [7]; 10000 nM) [%] | cell viability (HepG2 [8]; 1 nM) [%] | cell viability (HepG2 [8]; 10 nM) [%] | cell viability (HepG2 [8]; 100 nM) [%] | cell viability (HepG2 [8]; 1000 nM) [%] | cell viability (HepG2 [8]; 10000 nM) [%] | cell viability (U2OS [9]; 1 nM) [%] | cell viability (U2OS [9]; 10 nM) [%] | cell viability (U2OS [9]; 100 nM) [%] | cell viability (U2OS [9]; 1000 nM) [%] | cell viability (U2OS [9]; 10000 nM) [%] | cell viability (Caco-2 [10]; 1 nM) [%] | cell viability (Caco-2 [10]; 10 nM) [%] | cell viability (Caco-2 [10]; 100 nM) [%] | cell viability (Caco-2 [10]; 1000 nM) [%] | cell viability (Caco-2 [10]; 10000 nM) [%] | drug sensitivity score (Vero E6 [11]) | drug sensitivity score (Calu-3 [12]) | drug sensitivity score (HepG2 [13]) | drug sensitivity score (U2OS [14]) | drug sensitivity score (Caco-2 [15]) |
| --- | --- | --- | --- | --- | --- | --- | --- | --- | --- | --- | --- | --- | --- | --- | --- | --- | --- | --- | --- | --- | --- | --- | --- | --- | --- | --- | --- | --- | --- | --- | --- | --- | --- | --- | --- |
| CCc1cc2c(c(CC)n1)CCC(=O)N2Cc1ccc(-c2ccccc2-c2nnn[nH]2)cc1 [ZD-7155] | > 10 | > 10 | > 10 | > 10 | > 10 | 92.5 | 96.2 | 91.6 | 97.1 | 102 | 111 | 99.8 | 97 | 95.3 | 94.7 | 86.1 | 97.8 | 91.1 | 99.6 | 102 | 96.2 | 97.4 | 102 | 99.3 | 101 | 97.5 | 86.9 | 91.5 | 96.8 | 109 | 0 | 0 | 0 | 0 | 0 |
| COc1ccc(S(=O)(=O)Nc2nc(-c3cccc([N+](=O)[O-])c3)cs2)cc1OC [Ro-61-8048] | > 10 | > 10 | > 10 | > 10 | > 10 | 101 | 97.2 | 85.1 | 102 | 97.9 | 107 | 89.5 | 103 | 97.9 | 124 | 107 | 86.1 | 101 | 102 | 106 | 98.6 | 93.5 | 99.4 | 100 | 106 | 133 | 90.8 | 110 | 124 | 95.8 | 0 | 0 | 0 | 0 | 0 |
| O=C(NC(=O)c1c(F)cccc1F)Nc1cc(Cl)c(OC(F)(F)C(F)C(F)(F)F)cc1Cl (stereo not given) [lufenuron] | > 10 | > 10 | > 10 | > 10 | > 10 | 99.2 | 108 | 98.3 | 110 | 100 | 95.4 | 98.9 | 92.1 | 83.2 | 95.3 | 98.6 | 94.3 | 109 | 101 | 101 | 100 | 95.1 | 96.7 | 98.4 | 99.7 | 100 | 95.1 | 93.8 | 96.8 | 95 | 0 | 0 | 0 | 0 | 0 |
| CC(C)[C@H]1[C@@H]2CC[C@@H](C2)[C@@H]1N | > 10 | > 10 | > 10 | > 10 | > 10 | 89.6 | 99.3 | 88.5 | 95.3 | 108 | 102 | 99.7 | 98.6 | 96 | 104 | 89.5 | 95 | 93.6 | 97.4 | 90.1 | 103 | 102 | 98 | 93.6 | 92.1 | 96.8 | 98.9 | 106 | 100 | 83.9 | 0 | 0 | 0 | 0 | 0.3 |
